From the OligoGym collection
Where “and” joins values, the source holds several entries; their conditions need not be identical. Equal values may be shown once. After the bases stand the sugars from the 5' end (letter, count) and the backbone: PS all phosphorothioate, else s phosphorothioate and o phosphodiester by linkage. Methylation of C is not given here. e = 2'-O-(2-methoxyethyl) (MOE); k = constrained ethyl (cEt); d = 2'-deoxy (DNA)

Target: IRF4
Conditions: ASO

| Sequence | target mRNA inhibition (SK-MEL-28, 4 µM) | target mRNA inhibition (MM.1R, 1 µM) | further results |
| --- | --- | --- | --- |
| GTAAACACATCACTTG (sugars k3 d10 k3, PS) | 51% | – | – |
| GTAAACGCAAGTCTGA (sugars k3 d10 k3, PS) | – | 14% | – |
| GTAAACTTGGCTGTGG (sugars k3 d10 k3, PS) | 18% | – | – |
| GTAAATATCCTGTAGT (sugars k3 d10 k3, PS) | 33% | – | – |
| GTAACTAACTCAAAAG (sugars k3 d10 k3, PS) | -1% | – | – |
| GTAATGTAGGGATACA (sugars k3 d10 k3, PS) | 48% | – | – |
| GTACACAAGACAAATC (sugars k3 d10 k3, PS) | 21% | – | – |
| GTACACCTCTTCACTA (sugars k3 d10 k3, PS) | 7% | – | – |
| GTACATCCTGAAGCCA (sugars k3 d10 k3, PS) | 26% | – | – |
| GTAGATCCTGCTCTGG (sugars k3 d10 k3, PS) | 45% | – | – |
| GTAGGTAAGATCTCCA (sugars k3 d10 k3, PS) | – | 22% | – |
| GTAGTATGAGAAACGG (sugars kddddddddddkekek, PS) | – | 46% | – |
| GTAGTATGAGAAACGG (sugars kdddddddddkekeke, PS) | – | 28% | – |
| GTAGTCCTGCTTGCCC (sugars k3 d10 k3, PS) | 44% | – | – |
| GTAGTCCTGCTTGCCC (sugars k4 d8 k4, PS) | 11% | – | – |
| GTATACCAACGACAGC (sugars k3 d10 k3, PS) | 78% | – | – |
| GTATACTTAAGCAAGT (sugars k3 d10 k3, PS) | 42% | – | – |
| GTATAGTTCTCAACCA (sugars k3 d10 k3, PS) | 47% | – | – |
| GTATTTCATAGCTAGT (sugars k3 d10 k3, PS) | 69% | – | – |
| GTCAAAAAGATGCAGA (sugars k3 d10 k3, PS) | 50% | – | – |
| GTCAATACTGAAAGGC (sugars k3 d10 k3, PS) | 66% | – | – |
| GTCACCTGGCAACCAT (sugars k3 d10 k3, PS) | 41% | – | – |
| GTCACTTACACCCAGA (sugars k3 d10 k3, PS) | 52% | – | – |
| GTCAGCTCCATCCTGC (sugars k3 d10 k3, PS) | 52% | – | – |
| GTCATTGCTCTTGTTC (sugars k3 d10 k3, PS) | – | 18% | – |

| Sequence | target mRNA inhibition (SK-MEL-28, 4 µM) | target mRNA inhibition (MM.1R, 1 µM) | further results |
| --- | --- | --- | --- |
| GTCCAGAGTCTTCAGA (sugars k3 d10 k3, PS) | 6% | – | – |
| GTCCCTCCAGCTTCGG (sugars k3 d10 k3, PS) | 3% | – | – |
| GTCCGACGCACCGCGG (sugars k3 d10 k3, PS) | 18% | – | – |
| GTCCGCCCCGCGCGGT (sugars k3 d10 k3, PS) | – | 3% | – |
| GTCGAACCTCTGGTTC (sugars k3 d10 k3, PS) | -10% | – | – |
| GTCGCGCAAGTCTACA (sugars k3 d10 k3, PS) | – | 4% and 16% | – |
| GTCTAAACCAGCATAT (sugars k3 d10 k3, PS) | 19% | – | – |
| GTCTAAAGTCCCATCG (sugars k3 d10 k3, PS) | 40% | – | – |
| GTCTATGGGATTATAT (sugars k3 d10 k3, PS) | 21% | – | – |
| GTCTCAGTTTGAAGCA (sugars k3 d10 k3, PS) | 69% and 74% | – | – |
| GTCTGGCTAGCAGAGG (sugars k4 d8 k4, PS) | 9% | – | – |
| GTGAAAACACTCATGG (sugars k3 d10 k3, PS) | 60% | – | – |
| GTGATAGCTGAGCTGA (sugars k2 d9 e3 k2, PS) | – | 13% | – |
| GTGATAGCTGAGCTGA (sugars k3 d10 k3, PS) | – | 70% and 75% | target mRNA inhibition (H929, 0.04 µM): 51% and 42%; target mRNA inhibition (KMS11, 0.2 µM): 77% and 89%; target mRNA inhibition (MM.1R, 0.0625 µM): 13% and 17%; target mRNA inhibition (MM.1R, 0.25 µM): 38% and 47%; target mRNA inhibition (MM.1R, 4 µM): 89% and 88% |
| GTGATAGCTGAGCTGA (sugars kkddddddddddkeke, PS) | – | 35% | – |
| GTGATAGCTGAGCTGA (sugars kkdddddddddekeke, PS) | – | 24% | – |
| GTGATAGGTATACTTA (sugars k3 d10 k3, PS) | 65% | – | – |
| GTGATGTCAGGTTTTC (sugars k3 d10 k3, PS) | – | 66% | target mRNA inhibition (MM.1R, 0.074 µM): 11%; target mRNA inhibition (MM.1R, 0.222 µM): 38%; target mRNA inhibition (MM.1R, 0.666 µM): 66%; target mRNA inhibition (MM.1R, 2 µM): 90% |
| GTGATGTCAGGTTTTC (sugars kkddddddddddkeke, PS) | – | 18% | – |
| GTGGAACTCATAGGTG (sugars k3 d10 k3, PS) | 53% | – | – |
| GTGGGTCCCAAGATCG (sugars k3 d10 k3, PS) | 40% | – | – |
| GTGTAAGGTCTGAGAG (sugars k3 d10 k3, PS) | 16% | – | – |
| GTGTCTAAAGTCCCAT (sugars kddddddddddkekek, PS) | – | 34% and 23% | – |
| GTGTGCTTGCCAAGCC (sugars k3 d10 k3, PS) | – | 66% and 63% | target mRNA inhibition (MM.1R, 0.0625 µM): 35%; target mRNA inhibition (MM.1R, 0.25 µM): 23%; target mRNA inhibition (MM.1R, 4 µM): 87% |
| GTGTGCTTGCCAAGCC (sugars kkdddddddddkekek, PS) | – | 41% and 39% | – |
